SMILES	melting point [°C]	boiling point [°C]	also measured
Clc1cc2oc3c(Cl)cc(Cl)c(Cl)c3c2cc1Cl	237	–	log10 vapour pressure (mmHg): -8.82
CCCCOCCO	-74.8	168	log10 Henry constant (atm·m³/mol): -5.8; log10 Koc (L/kg): 1.83; log10 vapour pressure (mmHg): -0.0555; ready biodegradability: readily biodegradable
CCC(C)(Br)CC	–	130	–
O=C1C[C@@H](c2ccc(O)cc2)Oc2cc(O)cc(O)c21	251	–	–
O=C(c1ccc(O)cc1)c1ccc(O)cc1	210	–	–
COc1ccc(C(=O)OC(=O)c2ccc(OC)cc2)cc1	94.5	–	–
CCSC(C)C	-122	108	–
O=C(O)c1cc(Cl)ccc1[N+](=O)[O-]	139	–	–
Cc1cccc(C)c1N(C)C	-36	196	–
O=[Se](O)c1ccccc1	124	–	–
CCCC[Si](Cl)(Cl)Cl	–	148	–
CCOC(=O)NN	46	–	–
O=C(Cl)c1cc(C(=O)Cl)cc(C(=O)Cl)c1	36.3	–	–
CC(=O)C(Cl)Cl	–	120	log10 vapour pressure (mmHg): 1.43
C=C(C(=O)O)c1ccccc1	106	–	ready biodegradability: readily biodegradable
CC(C)(C)CCC(C)(C)C	-12.6	137	log10 vapour pressure (mmHg): 0.942
Nc1ccc(S(=O)(=O)c2ccc(N)cc2)cc1	176	–	–
Cc1cc(O)ccc1O	128	272	–
CCSc1ccc(C)cc1	–	220	–
N[C@@H](Cc1cc(I)c(Oc2cc(I)c(O)c(I)c2)c(I)c1)C(=O)O	236	–	–
CCCOC(=O)c1ccccc1C(=O)OCCC	–	318	log10 vapour pressure (mmHg): -3.88
COC(=O)c1cc(Oc2ccc(C(F)(F)F)cc2Cl)ccc1[N+](=O)[O-]	–	–	log10 vapour pressure (mmHg): -7.12
C1CC2CC1C1OC21 (centres undefined)	123	–	–
Cc1cc(C)on1	–	143	–
O=c1[nH]c2ccccc2o1	138	335	–
C[C@@H](Br)C(=O)Cl	–	132	–

SMILES	melting point [°C]	boiling point [°C]	also measured
COc1cc(C)oc(=O)c1	86	–	–
O=C(O)c1c(Cl)cc(Cl)cc1Cl	162	–	–
Cc1cc(C)c2ncccc2c1	–	268	–
COc1ccc(OC)c(N)c1	82.5	270	–
c1ccc(N2CCNCC2)cc1	–	286	log10 vapour pressure (mmHg): -2.26
COc1ccc(C(=O)c2ccccc2)c(O)c1	65.5	–	ready biodegradability: not readily biodegradable; log10 BCF (fish): 1.97
N#CCc1cccc2ccccc12	32.5	–	–
CN(C)CCCN(CCCN(C)C)CCCN(C)C	–	–	ready biodegradability: not readily biodegradable
CCC(C)CCc1ccccc1 (centres undefined)	–	220	–
CCCCCCCCCCCCCCCC(C)=O	48	320	–
Clc1cc(Cl)nc(-c2ccccc2)n1	96.9	–	log10 vapour pressure (mmHg): -4.05
Cc1nc(C)c(Cl)c(O)c1Cl	320	–	–
ClCc1cccc2ccccc12	32	292	–
CC(C)CC1Nc2cc(Cl)c(S(N)(=O)=O)cc2S(=O)(=O)N1 (centres undefined)	222	–	–
CC(CCl)CCCl (centres undefined)	–	168	–
S=C1NCCS1	106	–	–
CCCCCCCCCCCCCC(C)=O	39.5	294	–
CC(=O)C=CC=Cc1ccccc1	68	–	–
CC1(C)CC(=O)CC(C)(C)N1	36	205	ready biodegradability: not readily biodegradable
O=C(C(F)(F)F)C(F)(F)F	-125	-27.4	log10 vapour pressure (mmHg): 3.35
ClC1=CCCCC1	–	142	–
CCCCCCCCCCCCCCCC[n+]1ccccc1.[Br-]	63	–	–
CCS(=O)(=O)CCn1c([N+](=O)[O-])cnc1C	128	–	–
CCNc1nc(Cl)nc(NCC)n1	226	–	log10 Koc (L/kg): 2.1; log10 vapour pressure (mmHg): -7.66; ready biodegradability: not readily biodegradable; log10 BCF (fish): 0.56; log10 biotransformation half-life (days) (fish): -0.94
COc1ccc2[nH]ccc2c1	57	–	–
CC(O)C(C)O (centres undefined)	–	–	ready biodegradability: readily biodegradable
